Data taken from paper PMC10791743, “Selective CK1α degraders exert antiproliferative activity against a broad range of human cancer cell lines” (Nature Communications, 2024).
“And” between values parts separate entries of the source, which are not always exact repeats. Equal values may be shown once.

Key:
MOLM-13 cells = test: Annexin-V staining for apoptosis, wild type MOLM-13; type: cell-based, human; conditions: for total apoptosis, flow cytometry: MOLM-13; for Late apoptosis, flow cytometry / Early apoptosis, flow cytometry: WT
Protocol: Wild type and CRBN^−/− MOLM-13 cells were grown in 12-well plates (TPP, Techno Plastic Products AG) with 500,000 cells per well in 2 ml total media volume. Cells were treated with 1 μl/ml DMSO or 1 μM compound in triplicate, and incubated for 24 or 72 h at 37 °C. To prepare samples, this buffer was used: 10 mM HEPES, 0.14 M NaCl, 2.5 mM CaCl2 pH 7.4, 2% v/v FBS in UltraPure water (Invitrogen). After incubation, samples were collected in 5-ml tubes for flow cytometry (Falcon). Single-stain controls consisted of ~150 μl of multiple samples combined. Wells were washed with 1 ml of buffer that was added to the corresponding sample tube. Cells were centrifuged at 500×g for 5 min at 4 °C to form a pellet. Supernatant was decanted and cells were washed again with 3 ml of buffer, then centrifuged. After decanting the supernatant, 3 μl of APC-conjugated anti-Annexin-V antibody (BioLegend) was added to each tube in the residual buffer left behind. Samples were mixed by vortex and incubated at room temperature in the dark for 20 min. Samples were then washed and centrifuged a final time, decanting the supernatant and blotting the tubes to remove residual buffer. 50 μl of buffer with DAPI was added to all appropriate samples and mixed, then analyzed by flow cytometry.
Supplementary Fig. 13: Gating for Annexin V flow cytometry analysis. Total cells were gated to remove cell debris, followed by single cell gating on the FSC-A/FSC-H diagonal. Within the single […]
Live cells are negative for both fluorescent markers, DAPI positive/APC negative cells are necrotic, APC positive/DAPI negative cells are still alive but in the early stages of apoptosis, and double positive cells are dead via apoptosis. Percentages of early and late apoptosis were plotted in supplementary figures 4 and 5.
(1 picture or pasted object on this page, not shown here)

CRBN−/− MOLM-13 cells = test: Wild type versus CRBN−/− MOLM-13 cells (viability, CRBN dependence); type: cell-based, human; parameters: key to cell viability, dose-response replicate values: % viability = 100 − % activity (RLU normalized to negative control); conditions: for cell viability, dose-response replicate values: MOLM-13 CRBN KO
From the text: Having identified SJ7095 as a compound with a potent antiproliferative effect in MOLM-13 cells, we next examined whether the observed effect was CRBN-dependent. […] In an orthogonal approach, we tested SJ7095 in wild-type and CRBN-knockout MOLM-13 cells in a cell viability assay (Supplementary Fig. 1b).
CRBN^−/− MOLM-13 cells were created using CRISPR-Cas9 technology. Briefly, 1 million MOLM-13 cells were transiently transfected with precomplexed ribonuclear proteins (RNPs) consisting of 400 pmol of chemically modified sgRNA (Synthego), 135pmol of SpCas9 protein (St. Jude Protein Production Core), and 500 ng of pMaxGFP (Lonza) via nucleofection (Lonza, 4D-Nucleofector™ X-unit) using solution SF and program EO100 in a 100 µl cuvette according to the manufacturer’s recommended protocol. Transfected cells (GFP+) were single-cell sorted by flow cytometry (St. Jude Flow Cytometry and Cell Sorting Shared Resource) into 96-well tissue culture-treated plates 5 days post nucleofection. Cells were clonally expanded and screened for the desired targeted modification (out-of-frame indels) via targeted deep sequencing using gene-specific primers with partial Illumina adapter overhangs as previously described. Genotyping of clones was performed using CRIS.py[59]. Knockout clones were identified as clones containing only out-of-frame indels. PowerPlex® Fusion System (Promega) was used to confirm final clone identification (Hartwell Center for Biotechnology at St. Jude). All clones tested negative for mycoplasma by the MycoAlert^TMPlus Mycoplasma Detection Kit (Lonza). CRBN knockout confirmed by immunoblot (Supplementary Material).
MOLM-13 cells were plated in Corning 8804BC white 384-well assay plates at the appropriate cell number per well and incubated overnight at 37 °C in a humidified 5 % CO2 incubator. Compounds were transferred to the assay plate from a dose-response plate using a Labcyte Echo 650 Acoustic Liquid Handler (Beckman Coulter , USA). Cytotoxicity was determined following 72 h of incubation using Promega’s CellTiter-Glo reagent according to the manufacturer’s recommendation.
Luminescence was measured on the Envision plate reader (PerkinElmer, USA). Raw luminescence relative light unit (RLU) values for each compound at each concentration were normalized to obtain % activity using the following equation (1): 100 × [(mean(negctrl) – compound)/(mean (negctrl) – mean (posctrl))]. The % activity was converted to % viability using the following equation (2):
(100 – % activity), and then pooled from replicate experiments prior to fitting. Here, negctrl and posctrl refer to the negative (DMSO) and positive controls (staurosporine) on each plate. Dose-response curves were fit to the Hill equation using the GraphPad Prism (version 10). […]

SMILES: O=C1CCC(N2Cc3cc(Nc4noc5ccccc45)ccc3C2=O)C(=O)N1 (centres unmarked) [SJ3149]
- Cells dead or dying (annexin-V) (MOLM-13 cells; 1 μM, 72 h): ~ 80%
- Treatment-induced cell death (annexin-V) (MOLM-13 cells; 1 μM, 72 h, vs DMSO): increased cell death
- total apoptosis, flow cytometry (MOLM-13 cells; SI_Fig 4c, DMSO 9.7, 8.6, 9.8): 30.6 and 31.3 and 31.4
- total apoptosis, flow cytometry (MOLM-13 cells; SI_Fig 5c, DMSO 8, 7.6, 6.1): 81.1 and 51.1 and 84.7
- Late apoptosis, flow cytometry (MOLM-13 cells; SI_Fig 4b, DMSO 3, 2.7, 3): 8.5 and 9.4 and 9.1
- Early apoptosis, flow cytometry (MOLM-13 cells; SI_Fig 4b, DMSO 6.8, 5.8, 6.8): 22.2 and 21.9 and 22.3
- Late apoptosis, flow cytometry (MOLM-13 cells; SI_Fig 5b, DMSO 1.5, 1.2, 1.2): 37.1 and 24.3 and 39.1
- Early apoptosis, flow cytometry (MOLM-13 cells; SI_Fig 5b, DMSO 6.5, 6.4, 4.9): 44 and 26.8 and 45.7
- viability at 0.000508 µM (CRBN−/− MOLM-13 cells; Homo sapiens, MOLM-13, MOLM-13 CRBN KO, Conc 0.000508 uM, read-out: cell viability, dose-response replicate values): 113%
- viability at 0.00152416 µM (CRBN−/− MOLM-13 cells; Homo sapiens, MOLM-13, MOLM-13 CRBN KO, Conc 0.00152416 uM, read-out: cell viability, dose-response replicate values): 116%
- viability at 0.00457247 µM (CRBN−/− MOLM-13 cells; Homo sapiens, MOLM-13, MOLM-13 CRBN KO, Conc 0.00457247 uM, read-out: cell viability, dose-response replicate values): 120%
- viability at 0.0137174 µM (CRBN−/− MOLM-13 cells; Homo sapiens, MOLM-13, MOLM-13 CRBN KO, Conc 0.0137174 uM, read-out: cell viability, dose-response replicate values): 115%
- viability at 0.0411523 µM (CRBN−/− MOLM-13 cells; Homo sapiens, MOLM-13, MOLM-13 CRBN KO, Conc 0.0411523 uM, read-out: cell viability, dose-response replicate values): 116%
- viability at 0.123457 µM (CRBN−/− MOLM-13 cells; Homo sapiens, MOLM-13, MOLM-13 CRBN KO, Conc 0.123457 uM, read-out: cell viability, dose-response replicate values): 113%
- viability at 0.37037 µM (CRBN−/− MOLM-13 cells; Homo sapiens, MOLM-13, MOLM-13 CRBN KO, Conc 0.37037 uM, read-out: cell viability, dose-response replicate values): 118%
- viability at 10 µM (CRBN−/− MOLM-13 cells; Homo sapiens, MOLM-13, MOLM-13 CRBN KO, Conc 10 uM, read-out: cell viability, dose-response replicate values): 80.2%
- cell viability, dose-response replicate values (CRBN−/− MOLM-13 cells; Conc 0.000508 uM): 112.4 and 118.871
- cell viability, dose-response replicate values (CRBN−/− MOLM-13 cells; Conc 0.00152416 uM): 110.951 and 120.77
- cell viability, dose-response replicate values (CRBN−/− MOLM-13 cells; Conc 0.00457247 uM): 113.675 and 126.396
- cell viability, dose-response replicate values (CRBN−/− MOLM-13 cells; Conc 0.0137174 uM): 112.684 and 118.779
- cell viability, dose-response replicate values (CRBN−/− MOLM-13 cells; Conc 0.0411523 uM): 113.146 and 122.731
- cell viability, dose-response replicate values (CRBN−/− MOLM-13 cells; Conc 0.123457 uM): 114.423 and 122.764
- cell viability, dose-response replicate values (CRBN−/− MOLM-13 cells; Conc 0.37037 uM): 115.466 and 130.548
- cell viability, dose-response replicate values (CRBN−/− MOLM-13 cells; Conc 1.11111 uM): 110.229 and 104.531 and 126.2
- cell viability, dose-response replicate values (CRBN−/− MOLM-13 cells; Conc 3.33333 uM): 104.594 and 98.0101 and 119.909
- cell viability, dose-response replicate values (CRBN−/− MOLM-13 cells; Conc 10 uM): 76.5849 and 88.9707
